The values that follow come from patent US20240376097A1, “BCL-2 Inhibitor” (BeiGene Ltd., priority 2020, published 2024).

Read-outs that look alike come from different tables or passages of the source.

The target of experiment [1] is recombinant human Bcl-2-G101V protein (Homo sapiens (Human), UniProt P10415, G101V). Kind of experiment: Bcl-2-G101V TR-FRET Assay. It counts as binding. To be noted: Bcl-2 G101V mutant, TR-FRET; read-out: Biochemical assay (IC50, nM) Bcl-2 G101V. The method in brief: (§1)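 TR-FRET read at excitation 337 nm with emission at 490 nm and 520 nm. Inhibition of Bcl-2-G101V binding to its ligand across increasing compound concentrations was calculated from the 490/520 nm fluorescence ratio, and IC50 values came from four-parameter logistic fits.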

The test system of experiment [2] is recombinant human Bcl-2-G101V protein. Kind of experiment: Bcl-2-G101V TR-FRET Assay. The following applies: ratio of biochemical IC50 Bcl-2 G101V / Bcl-2 WT. It counts as binding. The method in brief: as §1
For experiment [3], the target named is recombinant human Bcl-2 D103Y protein (Homo sapiens (Human), UniProt P10415, D103Y). Kind of experiment: Bcl-2-D103Y Biochemical Assay (TR-FRET). It counts as binding. To be noted: for IC50: TR-FRET, FITC labeled Bak peptide; for Ratio of Bcl-2 D103Y/Bcl-2 WT: ratio of IC50. The method in brief:
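Compounds titrated against the Bcl-2 D103Y–ligand interaction; inhibition derived from the TR-FRET emission ratio 490 nm/520 nm after 337 nm excitation. Four-parameter logistic fitting gave IC50.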

The subject of experiment [4] is RS4;11 (BCL-2 dependent acute lymphoblastic leukemia cell line). Kind of experiment: RS4;11 Cell Proliferation Assay. It counts as cell-based. To be noted: Homo sapiens, RS4-11, RS4;11 cells, read-out: Cellular proliferation assay (IC50, nM) RS4. The method in brief: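 Viability measured via CellTiter-Glo luminescence after a 48 h, 37 °C exposure to compounds (10 points, highest 1 μM). Seeding was 50,000 RS4;11 cells per well in 10% FBS RPMI-1640; IC50 given as mean.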

The target in experiment [5] is Recombinant human Bcl-2 protein (Homo sapiens (Human), UniProt P10415). Kind of experiment: Bcl-2 TR-FRET Assay. It counts as binding. An outline of the steps: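 In pH 7.5 phosphate buffer containing NaCl, EDTA, Tween-20 and BSA, 0.05 nM Bcl-2 saw serially diluted compound for 0.5 h before 0.5 nM FITC-Bak peptide was added. Signal ratio at 520/490 nm after 1 h yielded IC50.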
A general note: In TR-FRET formats the signal depends on donor and acceptor labels being close together.

The test system of experiment [6] is BCL-2 G101V knock-in cell line H96 (derive from RS4;11). In words: Bcl 2-G101V Knock-In RS4;11 Cell Proliferation Assay. It counts as cell-based. To be noted: Homo sapiens, RS4;11 Bcl-2 G101V knock-in clone H96, 48 hrs, CellTiter-GLO, read-out: Cellular proliferation assay (IC50, nM) RS4. An outline of the steps: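 CellTiter-Glo luminescence after 48 h, 37 °C compound treatment (10 concentrations, maximum 1 μM or 10 μM) gave mean IC50 values. Cells were 50,000 per well of H96, a BCL2-G101V knock-in single clone derived from RS4;11 by Cas9 editing.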
(In general: In ATP-based viability assays light output follows the ATP content of the culture.)

Setting [7] is: Bcl-2 wild type, TR-FRET, read-out: Biochemical assay (IC50, nM) Bcl-2 WT.
The mark [8] stands for this setting: wild type Bcl-2, unit inferred, read-out: Bcl-2 WT.

Take `COc1cc(CN2CCN(C3CC4(C3)CN(c3ccc(C(=O)NS(=O)(=O)c5ccc(NC[C@H]6CC[C@](C)(O)CC6)c([N+](=O)[O-])c5)c(Oc5cnc6[nH]cc(F)c6c5)c3)C4)[C@H](c3ccccc3C(C)C)C2)ccc1C1COC1` [Example 345, 2-((3-fluoro-1H-pyrrolo[2,3-b]pyridin-5-yl)oxy)-N-((4-((((1r,4r)-4-hydroxy-4-methylcyclohexyl)methyl)amino)-3-nitrophenyl)sulfonyl)-4-(6-((R)-2-(2-isopropylphenyl)-4-(3-methoxy-4-(oxetan-3-yl)benzyl)piperazin-1-yl)-2-azaspiro[3.3]heptan-2-yl) benzamide]: the IC50 worked out at 0.38 nM in experiment [1]; 0.13 nM in experiment [3]; 0.14 nM in experiment [4]; 0.16 nM in experiment [5] (setting [7]); 0.16 nM in experiment [5] (setting [8]); 0.24 nM in experiment [6]. For the same compound, the “Ratio of Bcl-2 G101V/WT” value in experiment [2] was 2.4. Moreover, in experiment [3], the “Ratio of Bcl-2 D103Y/Bcl-2 WT” value came out at 0.8.
In the case of `COc1cc(CN2CCN(C3CC4(C3)CN(c3ccc(C(=O)NS(=O)(=O)c5ccc(NC[C@H]6CC[C@](C)(O)CC6)c([N+](=O)[O-])c5)c(Oc5cnc6[nH]cc(F)c6c5)c3)C4)[C@H](c3ccccc3C(C)C)C2)cc2c1OCCCC2` [Example 347, 2-((3-fluoro-1H-pyrrolo[2,3-b]pyridin-5-yl)oxy)-N-((4-((((1r,4r)-4-hydroxy-4-methylcyclohexyl)methyl)amino)-3-nitrophenyl)sulfonyl)-4-(6-((R)-2-(2-isopropylphenyl)-4-((9-methoxy-2,3,4,5-tetrahydrobenzo[b]oxepin-7-yl)methyl)piperazin-1-yl)-2-azaspiro[3.3]heptan-2-yl) benzamide], the IC50 in experiment [1] came to 0.47 nM; in experiment [3], 0.28 nM; in experiment [4] it was 0.13 nM; in experiment [5] (setting [7]), 0.2 nM; in experiment [5] (setting [8]), 0.2 nM; in experiment [6], 0.34 nM. In addition, the “Ratio of Bcl-2 G101V/WT” value in experiment [2] turned out to be 2.3. Also, the “Ratio of Bcl-2 D103Y/Bcl-2 WT” value in experiment [3] is given as 1.4.
`COc1cc(CN2CCN(C3CC4(C3)CN(c3ccc(C(=O)NS(=O)(=O)c5ccc(NC[C@H]6CC[C@](C)(O)CC6)c([N+](=O)[O-])c5)c(Oc5cnc6[nH]cc(F)c6c5)c3)C4)[C@H](c3ccccc3C(C)C)C2)ccc1OC(C)C` [Example 349, 2-((3-fluoro-1H-pyrrolo[2,3-b]pyridin-5-yl)oxy)-N-((4-((((1r,4r)-4-hydroxy-4-methylcyclohexyl)methyl)amino)-3-nitrophenyl)sulfonyl)-4-(6-((R)-4-(4-isopropoxy-3-methoxybenzyl)-2-(2-isopropylphenyl)piperazin-1-yl)-2-azaspiro[3.3]heptan-2-yl) benzamide]: the IC50 in experiment [1] was determined as 0.43 nM; in experiment [3], 0.17 nM; in experiment [4], 0.16 nM; in experiment [5] (setting [7]), 0.2 nM; in experiment [5] (setting [8]), 0.2 nM; in experiment [6], 0.44 nM. Besides, the “Ratio of Bcl-2 G101V/WT” value in experiment [2] came to 2.2. In addition, in experiment [3], the “Ratio of Bcl-2 D103Y/Bcl-2 WT” value was 0.9.
Consider `COc1cc(CN2CCN(C3CC4(C3)CN(c3ccc(C(=O)NS(=O)(=O)c5ccc(NC[C@H]6CC[C@](C)(O)CC6)c([N+](=O)[O-])c5)c(Oc5cnc6[nH]cc(F)c6c5)c3)C4)[C@H](c3ccccc3C(C)C)C2)ccc1OC1CCC1` [Example 350, 4-(6-((R)-4-(4-cyclobutoxy-3-methoxybenzyl)-2-(2-isopropylphenyl)piperazin-1-yl)-2-azaspiro[3.3]heptan-2-yl)-2-((3-fluoro-1H-pyrrolo[2,3-b]pyridin-5-yl)oxy)-N-((4-((((1r,4r)-4-hydroxy-4-methylcyclohexyl)methyl)amino)-3-nitrophenyl)sulfonyl) benzamide], for which the IC50 was determined as 0.99 nM in experiment [1]; 0.65 nM in experiment [3]; 0.23 nM in experiment [4]; 0.48 nM in experiment [5] (setting [7]); 0.48 nM in experiment [5] (setting [8]); 0.79 nM in experiment [6]. The “Ratio of Bcl-2 G101V/WT” value in experiment [2] is on record as 2.2. In addition, the “Ratio of Bcl-2 D103Y/Bcl-2 WT” value in experiment [3] is on record as 1.4.
In the case of `COc1cc(CN2CCN(C3CC4(C3)CN(c3ccc(C(=O)NS(=O)(=O)c5ccc(NC[C@H]6CC[C@](C)(O)CC6)c([N+](=O)[O-])c5)c(Oc5cnc6[nH]cc(F)c6c5)c3)C4)[C@H](c3ccccc3C(C)C)C2)ccc1OC1COC1` [Example 351], the IC50 in experiment [1] worked out at 0.11 nM; in experiment [3], 0.07 nM; in experiment [4], 0.09 nM; in experiment [5] (setting [7]), 0.042 nM; in experiment [5] (setting [8]), 0.04 nM; in experiment [6], 0.13 nM. The “Ratio of Bcl-2 G101V/WT” value in experiment [2] is reported as 2.6. The “Ratio of Bcl-2 D103Y/Bcl-2 WT” value in experiment [3] worked out at 1.7.
Take `COc1ccc(C(=O)N2CCN(C3CC4(C3)CN(c3ccc(C(=O)NS(=O)(=O)c5ccc(NC[C@H]6CC[C@](C)(O)CC6)c([N+](=O)[O-])c5)c(Oc5cnc6[nH]cc(F)c6c5)c3)C4)[C@H](c3ccccc3C(C)C)C2)cc1` [Example 353]: the IC50 in experiment [1] stood at 0.25 nM; in experiment [3], 0.12 nM; in experiment [4] it was 0.2 nM; in experiment [5] (setting [7]) it was 0.077 nM; in experiment [5] (setting [8]), 0.07 nM; in experiment [6], 0.64 nM. Besides, the “Ratio of Bcl-2 G101V/WT” value in experiment [2] is 3.3. In experiment [3], the “Ratio of Bcl-2 D103Y/Bcl-2 WT” value stood at 1.5.
On to `COC1C2CC3CCC(CN4CCN(C5CC6(C5)CN(c5ccc(C(=O)NS(=O)(=O)c7ccc(NC[C@H]8CC[C@](C)(O)CC8)c([N+](=O)[O-])c7)c(Oc7cnc8[nH]cc(F)c8c7)c5)C6)[C@H](c5ccccc5C(C)C)C4)(C2)CC31` (stereo partly drawn) [Example 355, 2-((3-fluoro-1H-pyrrolo[2,3-b]pyridin-5-yl)oxy)-N-((4-((((1r,4r)-4-hydroxy-4-methylcyclohexyl)methyl)amino)-3-nitrophenyl)sulfonyl)-4-(6-((2R)-2-(2-isopropylphenyl)-4-((3-methoxyoctahydro-5H-2,5-methanoinden-5-yl)methyl)piperazin-1-yl)-2-azaspiro[3.3]heptan-2-yl)benzamide], for which the IC50 came out at 1.1 nM in experiment [1]; 1.8 nM in experiment [3]; 0.2 nM in experiment [4]; 0.31 nM in experiment [5] (setting [7]); 0.31 nM in experiment [5] (setting [8]); 2.8 nM in experiment [6]. In addition, the “Ratio of Bcl-2 G101V/WT” value in experiment [2] is 3.6. The “Ratio of Bcl-2 D103Y/Bcl-2 WT” value in experiment [3] came out at 5.8.
With `COc1ccc(CN2CCN(C3CC4(C3)CN(c3ccc(C(=O)NS(=O)(=O)c5ccc(NCC67CC8CC(C6)CC(OC)(C8)C7)c([N+](=O)[O-])c5)c(Oc5cnc6[nH]cc(F)c6c5)c3)C4)[C@H](c3ccccc3C(C)C)C2)cc1` [Example 357, 2-((3-fluoro-1H-pyrrolo[2,3-b]pyridin-5-yl)oxy)-4-(6-((R)-2-(2-isopropylphenyl)-4-(4-methoxybenzyl)piperazin-1-yl)-2-azaspiro[3.3]heptan-2-yl)-N-((4-((((1r,5R,7S)-3-methoxyadamantan-1-yl)methyl)amino)-3-nitrophenyl)sulfonyl) benzamide], the IC50 in experiment [1] was determined as 1.4 nM; in experiment [3] it was 1 nM; in experiment [4], 0.19 nM; in experiment [5] (setting [7]) it was 0.57 nM; in experiment [5] (setting [8]), 0.57 nM; in experiment [6] it was 1 nM. For the same compound, the “Ratio of Bcl-2 G101V/WT” value in experiment [2] came out at 2.5. In experiment [3], the “Ratio of Bcl-2 D103Y/Bcl-2 WT” value was 1.8.
In the case of `COc1cc(CN2CCN(C3CC4(C3)CN(c3ccc(C(=O)NS(=O)(=O)c5ccc(NC[C@H]6CC[C@](C)(O)CC6)c([N+](=O)[O-])c5)c(Oc5cnc6[nH]cc(F)c6c5)c3)C4)[C@H](c3ccccc3C(C)C)C2)ccc1N1CC(OC)C1` [Example 359, 2-((3-fluoro-1H-pyrrolo[2,3-b]pyridin-5-yl)oxy)-N-((4-((((1r,4r)-4-hydroxy-4-methylcyclohexyl)methyl)amino)-3-nitrophenyl)sulfonyl)-4-(6-((R)-2-(2-isopropylphenyl)-4-(3-methoxy-4-(3-methoxyazetidin-1-yl)benzyl)piperazin-1-yl)-2-azaspiro[3.3]heptan-2-yl)benzamide], the IC50 in experiment [1] is 0.64 nM; in experiment [3], 0.44 nM; in experiment [4] it was 0.16 nM; in experiment [5] (setting [7]), 0.19 nM; in experiment [5] (setting [8]), 0.19 nM; in experiment [6], 0.63 nM. Besides, the “Ratio of Bcl-2 G101V/WT” value in experiment [2] amounted to 3.4. For the same compound, the “Ratio of Bcl-2 D103Y/Bcl-2 WT” value in experiment [3] is on record as 2.4.
